{
  "source": "patent US5476953A",
  "about": "“Biologically active amides containing a bicyclo moiety” (Cornell Research Foundation, Inc., priority 1994, dated 1995)",
  "key": {"[1]": {"tested_on": "HCT116 human colon carcinoma cells", "assay": "In vitro cytotoxicity, crystal violet assay, HCT116 human colon carcinoma", "type": "cell-based", "conditions": "HCT-116, inhibition of cell proliferation to 50% of untreated control, 72 hours", "protocol": "Methanolic extract, obtained on thawing about 1 g frozen sponge by immersion in 20 ml methanol, was assessed for in vitro cytotoxicity in HCT116 human colon carcinoma cells using the crystal violet assay as described in Catino, J. J., et al, Cancer Chemothr. Pharmacol. 15: 240-243, 1985. Particularly, cells were plated at 4000 cells/well in 96 well microtiter plates and 24 hours later samples were added and serial diluted. The cells were incubated at 37° C. for 72 hours. The media was then removed and the cells fixed for 10 minutes with 3.7% formaldehyde in 1 X phosphate buffered saline. The fixing solution was removed and the cells stained with a 0.0075% crystal violet solution for 15 minutes. The cells were then allowed to dry. Rough IC50 values (IC50 being the drug concentration required to inhibit cell proliferation to 50% of that of untreated control cells), expressed as a dilution factor from a 2 mg/ml starting concentration, were determined by visual examination, compared to untreated control wells.\nCytotoxicity was assessed for pure Icadamide A and for pure Icadamide B in an HCT116 human colon carcinoma cell line by the crystal violet assay described previously. […] The IC50 is the drug concentration required to inhibit cell proliferation to 50% of that of untreated control cells."}, "[2]": {"tested_on": "M109 mouse lung tumor, ip", "assay": "In vivo antitumor activity against ip implanted M109 mouse lung tumor", "conditions": "for MST % T/C: qd 1-5, ip, active ≥125%", "protocol": "(§1) For evaluation of antitumor activity versus M109 mouse lung tumors, experiments were begun by implanting 0.5 ml of a 2.0% brei ip or 0.1 ml subcutaneously (sc) in CDF1 mice as described in Rose, W. C., Cancer Treat. Rep. 65: 299-312 (1981). Icadamide B was administered either intraperitoneally (ip), intravenously (iv) or subcutaneously (sc) by alzet pump according to dosage amounts and schedule set forth in Table IV below. Results are expressed as % T/C, i.e., percentage of median survival time of treated (T) versus control (C) groups. A % T/C of ≥125% was considered an active result. Results are also expressed in terms of tumor growth inhibition, particularly the median times for tumors in treated (T) mice to reach a 1 g size minus the median times for control (C) mice to reach a 1 g size, denoted T-C. Tumor weights were interchangeable with tumor size on the basis of 1 mm^3 =1 mg. The activity criterion for T-C is approximately equal to 4 days. Depending on the tumor volume doubling time for M109 tumors in control mice, this amount of delay in tumor growth is consistent with about one log of cell kill."}, "[3]": {"tested_on": "asbestos-induced pulmonary squamous cell carcinoma (ASB), sc", "assay": "In vivo antitumor activity against sc implanted asbestos-induced pulmonary squamous cell carcinoma (ASB)", "design": "species or system mouse", "protocol": "(§2) For evaluation of antitumor activity versus the asbestos-induced pulmonary squamous cell carcinoma (ASB), CDF1 mice were implanted either intraperitoneally (ip) or subcutaneously (sc) with 0.5 ml or 0.1 ml of a 2% brei, respectively. […] Results were evaluated on the same basis as described above for M109 mouse lung tumors except that the activity criterion for tumor growth inhibition was a T-C of ≥6 days."}, "[4]": {"tested_on": "M109 mouse lung tumor, sc", "assay": "In vivo antitumor activity against sc implanted M109 mouse lung tumor", "conditions": "for MST % T/C: active ≥125%; for T-C: time to 1 g tumor, activity criterion approximately 4 days", "protocol": "as §1"}, "[5]": {"tested_on": "asbestos-induced pulmonary squamous cell carcinoma (ASB), ip", "assay": "In vivo antitumor activity against ip implanted asbestos-induced pulmonary squamous cell carcinoma (ASB)", "design": "species or system mouse", "protocol": "as §2"}, "P388 mouse leukemia, ip": {"tested_on": "P388 mouse leukemia, ip", "assay": "In vivo antitumor activity against ip implanted P388 mouse leukemia", "protocol": "For evaluation of antitumor activity against P388 mouse leukemia cells, 1 X 10^6 P 388 leukemia cells were implanted in the intraperitoneal (ip) cavity of (BALB/c X DBA/2)F1 (CDF1) or (C57BL/6 X DBA/2)F1 (BDF1) mice according to the procedure as described in Rose, W. C., et al, Cancer Res. 43: 1504-1510 (1983). Icadamide B was dissolved in DMSO and diluted with saline to the desired concentrations. Injection of Icadamide B was by the ip route beginning on the first day after tumor implantation and consecutively every day for five treatments (q1dX5:1). Increases in lifespan were reflected by the median survival time of treated (T) versus control (C) groups for which a % T/C was calculated. A % T/C of ≥125% was considered an active result."}, "[6]": {"conditions": "a) 0.020 mg/kg/inj, d. 1, 4 & 7, iv"}, "[7]": {"conditions": "b) 0.128 mg/kg/inj, d. 1, 3, 5, 7 & 9, iv"}, "[8]": {"conditions": "e) 0.032-0.0537 mg/kg daily, qd 4-10, subcutaneously implanted Alzet pump (scap)"}},
  "note": "Where “and” joins values, the source holds several entries; their conditions need not be identical. Identical values can stand only once.",
  "data": [
    {"smiles": "C=C1CC(OC)(C(O)C(=O)NC2OCOC3C2OC(CC(O)/C=C/C/C=C/C=C/C(=O)NC(CCCNC(=N)N)C(=O)O)C(C)(C)C3OC)OC(C)C1C", "note": "(centres unmarked) [Icadamide A]", "values": [
      {"measurement": "IC50", "setting": "[1]", "result": 63, "unit": "nM"}
    ]},
    {"smiles": "C=C1CC(OC)(C(O)C(=O)NC2OCOC3C2OC(CC(O)/C=C/CCCCCCO)C(C)(C)C3OC)OC(C)C1C", "note": "(centres unmarked) [Icadamide B]", "values": [
      {"measurement": "MST % T/C", "setting": "[2]; a) 0.016 mg/kg/inj", "result": 163, "unit": "%"},
      {"measurement": "MST % T/C", "setting": "[2]; b) 0.008 mg/kg/inj", "result": 150, "unit": "%"},
      {"measurement": "activity (in words)", "setting": "[2]; ip implanted M109", "result": "good activity"},
      {"measurement": "increase in lifespan", "setting": "[2]; maximally tolerated doses, ip", "result": "63% and 50%"},
      {"measurement": "MST % T/C", "setting": "[3]; 0.032/0.128 mg/kg/inj, qd 4-8, iv, active ≥125%", "result": 129, "unit": "%"},
      {"measurement": "T-C", "setting": "[3]; 0.032/0.128 mg/kg/inj, qd 4-8, iv, time to 1 g tumor, activity criterion ≥6 days", "result": "3.0 days and 3 days"},
      {"measurement": "distal site activity (in words)", "setting": "[3]; sc implanted ASB", "result": "little distal site activity"},
      {"measurement": "MST % T/C", "setting": "[4]; [6]", "result": 135, "unit": "%"},
      {"measurement": "T-C", "setting": "[4]; [6]", "result": -0.3, "unit": "days"},
      {"measurement": "MST % T/C", "setting": "[4]; [7]", "result": 97, "unit": "%"},
      {"measurement": "T-C", "setting": "[4]; [7]", "result": 0, "unit": "days"},
      {"measurement": "MST % T/C", "setting": "[4]; c) 0.016 mg/kg/inj, qd 4-8, iv", "result": 119, "unit": "%"},
      {"measurement": "T-C", "setting": "[4]; c) 0.016 mg/kg/inj, qd 4-8, iv", "result": 0.3, "unit": "days"},
      {"measurement": "MST % T/C", "setting": "[4]; d) 0.013 mg/kg/inj, qd 4-8, ip", "result": 109, "unit": "%"},
      {"measurement": "T-C", "setting": "[4]; d) 0.013 mg/kg/inj, qd 4-8, ip", "result": 2.5, "unit": "days"},
      {"measurement": "MST % T/C", "setting": "[4]; [8]", "result": 102, "unit": "%"},
      {"measurement": "T-C", "setting": "[4]; [8]", "result": 3.3, "unit": "days"},
      {"measurement": "increase in lifespan (in words)", "setting": "[4]; sc implanted M109", "result": "marginal increases in lifespan"},
      {"measurement": "tumor growth delay (in words)", "setting": "[4]; sc implanted M109", "result": "negligible tumor growth delays"},
      {"measurement": "MST % T/C", "setting": "[5]; 0.008 mg/kg/inj, qd 4-8, ip, active ≥125%", "result": 121, "unit": "%"},
      {"measurement": "activity (in words)", "setting": "[5]; ip implanted ASB", "result": "poor activity"},
      {"measurement": "IC50", "setting": "[1]", "result": 0.17, "unit": "nM"},
      {"measurement": "MST % T/C", "setting": "P388 mouse leukemia, ip; 0.016 mg/kg/inj, qd 1-5, ip; two separate experiments a) and b), active ≥125%", "result": "181% and 143%"},
      {"measurement": "activity (in words)", "setting": "P388 mouse leukemia, ip; ip implanted P388", "result": "good activity"},
      {"measurement": "increase in lifespan", "setting": "P388 mouse leukemia, ip; maximally tolerated dose, ip, two separate experiments", "result": "43% and 81%"}
    ]}
  ]
}
